Data on 17 compounds can be found in patent publication US9586961B2, “Homopiperazine derivatives as protein tyrosine kinase inhibitors and pharmaceutical use thereof” (LEO PHARMA A/S, priority 2010, dated 2017).

Format in all cases: biochemical
One assay addresses T1, JAK1 (Homo sapiens, UniProt P23458).
T1 construct: JAK1 (aa 850-1154) and TYK2 (aa 871-1187) are expressed with an N-terminally fused GST-tag; GST (N); purchased Carna Biosciences, Inc; host or cells: baculovirus expression system
As to the kind of experiment: JAK1 kinase assay (HTRF, inhibition of phosphorylation of a synthetic peptide). As to conditions: catalytic domain aa 850-1154, GST-tag; 7 μM ATP (Km); read-out: JAK1 kinase inhibitory activity (EC50). Summed up:
(§1)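 HTRF detection (streptavidin-XL665, cryptate anti-phospho antibody, overnight in the dark) after EDTA stop of a 20-30 min RT reaction on 1 μM TK substrate-biotin. Km-level ATP per kinase: 7 μM for JAK1 and 13 μM for TYK2, both N-terminal GST, with 50 nM SEB; 4 μM for JAK2 and 2 μM for JAK3, both His-tagged. Catalytic domains only; DMSO 0.75%.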
A general note: In TR-FRET formats the signal depends on donor and acceptor labels being close together.

The target in a further assay is T2, JAK2 (Homo sapiens, UniProt O60674).
T2 construct: All four purified enzymes contain only the catalytic domain; His (N); purchased Carna Biosciences, Inc; host or cells: baculovirus expression system
The assay can be described thus: JAK2 kinase assay (HTRF, inhibition of phosphorylation of a synthetic peptide). As to conditions: catalytic domain, His-tag; 4 μM ATP (Km); read-out: JAK2 kinase inhibitory activity (EC50). The procedure, abridged:
as §1

The target of the next assay is T3, JAK3 (Homo sapiens, UniProt P52333).
T3 construct: All four purified enzymes contain only the catalytic domain; His (N); purchased Carna Biosciences, Inc; host or cells: baculovirus expression system
As to the kind of experiment: JAK3 kinase assay (HTRF, inhibition of phosphorylation of a synthetic peptide). Conditions: catalytic domain, His-tag; 2 μM ATP (Km); read-out: JAK3 kinase inhibitory activity (EC50). The procedure, abridged: as §1

Another assay addresses T4, TYK2 (Homo sapiens, UniProt P29597).
T4 construct: JAK1 (aa 850-1154) and TYK2 (aa 871-1187) are expressed with an N-terminally fused GST-tag; GST (N); purchased Carna Biosciences, Inc; host or cells: baculovirus expression system
T4 sequence (P29597 871-1187): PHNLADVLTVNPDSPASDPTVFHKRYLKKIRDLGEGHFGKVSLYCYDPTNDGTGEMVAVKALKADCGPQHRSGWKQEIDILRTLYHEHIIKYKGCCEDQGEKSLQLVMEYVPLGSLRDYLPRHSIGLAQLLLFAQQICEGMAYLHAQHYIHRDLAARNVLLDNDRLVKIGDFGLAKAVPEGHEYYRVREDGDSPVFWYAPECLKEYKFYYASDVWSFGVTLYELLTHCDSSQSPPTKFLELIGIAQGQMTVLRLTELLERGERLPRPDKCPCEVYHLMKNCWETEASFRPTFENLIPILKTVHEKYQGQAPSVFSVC
The assay can be described thus: TYK2 kinase assay (HTRF, inhibition of phosphorylation of a synthetic peptide). Conditions: catalytic domain aa 871-1187, GST-tag; 13 μM ATP (Km); read-out: TYK2 kinase inhibitory activity (EC50). The method, then: JAK1, JAK2, JAK3 and TYK2 Kinase Assays:
Human baculovirus-expressed JAK1, 2, 3 and TYK2 were purchased from Carna Biosciences, Inc. All four purified enzymes contain only the catalytic domain. JAK1 (aa 850-1154) and TYK2 (aa 871-1187) are expressed with an N-terminally fused GST-tag, and JAK2 and JAK3 with an N-terminally fused His-tag. Inhibition of phosphorylation of a synthetic peptide was measured in an HTRF-based assay using the TK substrate-Biotin from the CisbioHTRFKinEASE TK kit. First, 2 μl of TK solution (TK substrate-biotin in kinase buffer [1× enzymatic buffer from HTRFKinEASE TK kit, 1 mM DTT]) is added to a plate containing 1 μl prediluted compound (final assay concentration DMSO: 0.75%). Then, 5 μl kinase-ATP mix (prepared in kinase buffer) is added to the wells and the plates are incubated at RT for 20-30 min. For all four kinases a concentration of ATP that corresponded to the Km for ATP was used. The final concentrations of buffers, substrate, kinase and ATP were: JAK1: 50 mMHepes buffer pH 7.0, 0.01% BSA, 10 mM MgCl2, 1 mM DTT, 7 μM ATP, 50 nMSEB, 1 μM TK Substrate-Biotin and 5 ng JAK1; JAK2: 50 mM Hepes buffer pH 7.0, 0.01% BSA, 5 mM MgCl2, 1 mM DTT, 4 μM ATP, 1 μM TK Substrate-Biotin and 0.1 ng JAK2; JAK3: 50 mMHepes buffer pH 7.0, 0.01% BSA, 5 mM MgCl2, 1 mM DTT, 2 μM ATP, 1 μM TK Substrate-Biotin and 0.3 ng JAK3; TYK2: 50 mMHepes buffer pH 7.0, 0.01% BSA, 5 mM MgCl2, 1 mM DTT, 13 μM ATP, 50 nMSEB, 1 μM TK Substrate-Biotin and 0.8 ng TYK2. Thereafter, the kinase reaction is stopped by adding 4 μl detection mix (final concentrations: 50 mM Hepes buffer pH 7.0, 0.01% BSA, 0.8 M KF, 20 mM EDTA, 42 nM Streptavidin-XL665 and 1:400 STKAbCryptate) and the plates are incubated overnight in the dark. The HTRF signal is read using an Envision plate reader.

T2 sequence (O60674 849-1124 limits assumed): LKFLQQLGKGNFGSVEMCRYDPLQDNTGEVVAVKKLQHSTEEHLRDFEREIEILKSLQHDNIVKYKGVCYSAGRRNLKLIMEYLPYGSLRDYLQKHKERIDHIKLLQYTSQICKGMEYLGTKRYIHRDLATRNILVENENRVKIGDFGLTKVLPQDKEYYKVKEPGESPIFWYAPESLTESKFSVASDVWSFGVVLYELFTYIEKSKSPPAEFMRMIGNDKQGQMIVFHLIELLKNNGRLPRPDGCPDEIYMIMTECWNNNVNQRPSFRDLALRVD
T3 sequence (P52333 822-1111 limits assumed): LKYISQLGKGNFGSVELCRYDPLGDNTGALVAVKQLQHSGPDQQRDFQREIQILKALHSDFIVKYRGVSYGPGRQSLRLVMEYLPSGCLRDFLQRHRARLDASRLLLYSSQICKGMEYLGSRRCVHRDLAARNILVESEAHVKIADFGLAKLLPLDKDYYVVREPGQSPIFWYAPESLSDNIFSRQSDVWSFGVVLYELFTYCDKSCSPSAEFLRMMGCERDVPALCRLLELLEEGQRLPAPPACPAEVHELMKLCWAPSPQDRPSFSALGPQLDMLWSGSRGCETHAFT
T1 sequence (P23458 850-1154): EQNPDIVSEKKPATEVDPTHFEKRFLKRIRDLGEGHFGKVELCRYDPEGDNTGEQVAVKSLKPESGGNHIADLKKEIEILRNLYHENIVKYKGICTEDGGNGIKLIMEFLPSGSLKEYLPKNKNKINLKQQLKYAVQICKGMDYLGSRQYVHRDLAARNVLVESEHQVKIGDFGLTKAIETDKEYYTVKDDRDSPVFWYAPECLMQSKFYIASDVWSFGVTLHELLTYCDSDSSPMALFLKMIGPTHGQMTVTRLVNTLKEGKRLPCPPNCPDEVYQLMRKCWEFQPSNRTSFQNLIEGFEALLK

Regarding `Cc1cc(C(=O)N2CCN(c3ncnc4[nH]ccc34)CC3(CC3)C2)ccc1S(N)(=O)=O` [Example 29, 2-methyl-4-[5-(7H-pyrrolo[2,3-d]pyrimidin-4-yl)-5,8-diazaspiro[2.6]nonane-8-carbonyl]benzenesulfonamide], the EC50 (usually the midpoint of the concentration-response curve) at JAK1 is 100 to 1000 nM; on JAK2, 100 to 1000 nM; on JAK3 it was 100 to 1000 nM; on TYK2, above 1000 nM.
Turning to `O=C(Cc1cccs1)N1CCN(c2ncnc3[nH]ccc23)CC2(CC2)C1` [Example 30, 1-[5-(7H-pyrrolo[2,3-d]pyrimidin-4-yl)-5,8-diazaspiro[2.6]nonan-8-yl]-2-(2-thienyl)ethanone], the EC50 was below 100 nM on JAK1, below 100 nM on JAK2, 100 to 1000 nM at JAK3 and 100 to 1000 nM at TYK2.
Regarding `NS(=O)(=O)c1ccc(C(=O)N2CCN(c3ncnc4[nH]ccc34)CC3(CC3)C2)cc1` [Example 31, 4-[5-(7H-pyrrolo[2,3-d]pyrimidin-4-yl)-5,8-diazaspiro[2.6]nonane-8-carbonyl]benzenesulfonamide], the EC50 was below 100 nM at JAK1, below 100 nM at JAK2, below 100 nM on JAK3 and 100 to 1000 nM at TYK2.
Take `NS(=O)(=O)c1ccc(C(=O)N2CCN(c3ncnc4[nH]ccc34)CC3(CC3)C2)cc1Cl` [Example 32, 2-chloro-4-[5-(7H-pyrrolo[2,3-d]pyrimidin-4-yl)-5,8-diazaspiro[2.6]nonane-8-carbonyl]benzenesulfonamide]: the EC50 was below 100 nM at JAK1, 100 to 1000 nM on JAK2, 100 to 1000 nM at JAK3 and above 1000 nM at TYK2.
Take `CN(C)S(=O)(=O)c1ccc(C(=O)N2CCN(c3ncnc4[nH]ccc34)CC3(CC3)C2)cc1` [Example 33, N,N-dimethyl-4-[5-(7H-pyrrolo[2,3-d]pyrimidin-4-yl)-5,8-diazaspiro[2.6]nonane-8-carbonyl]benzenesulfonamide]: the EC50 on JAK1 is 100 to 1000 nM; at JAK2, 100 to 1000 nM; at JAK3, 100 to 1000 nM; at TYK2, above 1000 nM.
On to `NS(=O)(=O)c1ccc(CCC(=O)N2CCN(c3ncnc4[nH]ccc34)CC3(CC3)C2)cc1` [Example 34, 4-[3-oxo-3-[5-(7H-pyrrolo[2,3-d]pyrimidin-4-yl)-5,8-diazaspiro[2.6]nonan-8-yl]propyl]benzenesulfonamide], for which the EC50 is below 100 nM on JAK1, below 100 nM on JAK2, below 100 nM on JAK3 and 100 to 1000 nM on TYK2.
Regarding `Cn1c(C(=O)N2CCN(c3ncnc4[nH]ccc34)CC3(CC3)C2)ccc1S(N)(=O)=O` [Example 35, 1-methyl-5-[5-(7H-pyrrolo[2,3-d]pyrimidin-4-yl)-5,8-diazaspiro[2.6]nonane-8-carbonyl]pyrrole-2-sulfonamide], the half-maximal effective concentration (EC50) was 100 to 1000 nM at JAK1, 100 to 1000 nM at JAK2, 100 to 1000 nM on JAK3 and above 1000 nM on TYK2.
Regarding `Cn1cc(S(N)(=O)=O)cc1C(=O)N1CCN(c2ncnc3[nH]ccc23)CC2(CC2)C1` [Example 36, 1-methyl-5-[5-(7H-pyrrolo[2,3-d]pyrimidin-4-yl)-5,8-diazaspiro[2.6]nonane-8-carbonyl]pyrrole-3-sulfonamide], the EC50 was 100 to 1000 nM at JAK1, 100 to 1000 nM on JAK2, 100 to 1000 nM on JAK3 and above 1000 nM on TYK2.
In the case of `NS(=O)(=O)c1ccc(C(=O)N2CCN(c3ncnc4[nH]ccc34)CC3(CC3)C2)o1` [Example 37, 5-[5-(7H-pyrrolo[2,3-d]pyrimidin-4-yl)-5,8-diazaspiro[2.6]nonane-8-carbonyl]furan-2-sulfonamide], the EC50 on JAK1 is 100 to 1000 nM; on JAK2, below 100 nM; on JAK3, 100 to 1000 nM; at TYK2, above 1000 nM.
For the compound `Cc1ccc(C(=O)N2CCN(c3ncnc4[nH]ccc34)CC3(CC3)C2)cc1S(N)(=O)=O` [Example 38, 2-methyl-5-[5-(7H-pyrrolo[2,3-d]pyrimidin-4-yl)-5,8-diazaspiro[2.6]nonane-8-carbonyl]benzenesulfonamide], the EC50 is below 100 nM on JAK1, below 100 nM on JAK2, 100 to 1000 nM at JAK3 and 100 to 1000 nM at TYK2.
In the case of `NS(=O)(=O)CCCC(=O)N1CCN(c2ncnc3[nH]ccc23)CC2(CC2)C1` [Example 39, 4-oxo-4-[5-(7H-pyrrolo[2,3-d]pyrimidin-4-yl)-5,8-diazaspiro[2.6]nonan-8-yl]butane-1-sulfonamide], the EC50 at JAK1 is below 100 nM; on JAK2 it was below 100 nM; on JAK3 it was below 100 nM; on TYK2, above 1000 nM.
Consider `N#CC1(C(=O)N2CCN(c3ncnc4[nH]ccc34)CC3(CC3)C2)CCCC1` [Example 40, 1-[5-(7H-pyrrolo[2,3-d]pyrimidin-4-yl)-5,8-diazaspiro[2.6]nonane-8-carbonyl]cyclopentanecarbonitrile], for which the EC50 was above 1000 nM on JAK1, 100 to 1000 nM on JAK2, 100 to 1000 nM on JAK3 and above 1000 nM at TYK2.
`N#CC1(C(=O)N2CCN(c3ncnc4[nH]ccc34)CC3(CC3)C2)CCOCC1` [Example 41, 4-[5-(7H-pyrrolo[2,3-d]pyrimidin-4-yl)-5,8-diazaspiro[2.6]nonane-8-carbonyl]tetrahydropyran-4-carbonitrile]: the EC50 at JAK1 is above 1000 nM; on JAK2, 100 to 1000 nM; at JAK3, 100 to 1000 nM; at TYK2, above 1000 nM.
`N#Cc1ccc(C(=O)N2CCN(c3ncnc4[nH]ccc34)CC3(CC3)C2)cc1F` [Example 42, 2-fluoro-4-[5-(7H-pyrrolo[2,3-d]pyrimidin-4-yl)-5,8-diazaspiro[2.6]nonane-8-carbonyl]benzonitrile]: the EC50 on JAK1 was 100 to 1000 nM; on JAK2 it was 100 to 1000 nM; at JAK3, 100 to 1000 nM; on TYK2, above 1000 nM.
As for `COc1cc(OC)cc(C(=O)N2CCN(c3ncnc4[nH]ccc34)CC3(CC3)C2)c1` [Example 43, (3,5-dimethoxyphenyl)-[5-(7H-pyrrolo[2,3-d]pyrimidin-4-yl)-5,8-diazaspiro[2.6]nonan-8-yl]methanone], the EC50 at JAK1, on JAK2, at JAK3 and at TYK2 was above 1000 nM throughout.
With `N#CC1(C(=O)N2CCN(c3ncnc4[nH]ccc34)CCC23CC3)CC1` [Example 44, 1-[6-(7H-pyrrolo[2,3-d]pyrimidin-4-yl)-6,9-diazaspiro[2.6]nonane-9-carbonyl]cyclopropanecarbonitrile], the EC50 on JAK1 is 100 to 1000 nM; at JAK2 it was 100 to 1000 nM; at JAK3, above 1000 nM; at TYK2, above 1000 nM.
Consider `O=C(CCC(F)(F)F)N1CCN(c2ncnc3[nH]ccc23)CCC12CC2` [Example 45, 4,4,4-trifluoro-1-[6-(7H-pyrrolo[2,3-d]pyrimidin-4-yl)-6,9-diazaspiro[2.6]nonan-9-yl]butan-1-one], for which the EC50 at JAK1 is 100 to 1000 nM; at JAK2, 100 to 1000 nM; on JAK3, 100 to 1000 nM; on TYK2, above 1000 nM.
